Measured values: US20210070748A1, “INHIBITORS OF BRUTONS TYROSINE KINASE” (Pharmacyclics LLC, priority 2015, published 2021)

Tests used:
Format in all cases: biochemical
JAK3 = target: T1, JAK3 (Homo sapiens, UniProt P52333); assay: Inhibition of a panel of kinases, in vitro HotSpot kinase assay: JAK3; details: D-compounds panel data; 1 μM ATP; read-out: IC50 JAK3
T1 sequence (P52333 1-1124): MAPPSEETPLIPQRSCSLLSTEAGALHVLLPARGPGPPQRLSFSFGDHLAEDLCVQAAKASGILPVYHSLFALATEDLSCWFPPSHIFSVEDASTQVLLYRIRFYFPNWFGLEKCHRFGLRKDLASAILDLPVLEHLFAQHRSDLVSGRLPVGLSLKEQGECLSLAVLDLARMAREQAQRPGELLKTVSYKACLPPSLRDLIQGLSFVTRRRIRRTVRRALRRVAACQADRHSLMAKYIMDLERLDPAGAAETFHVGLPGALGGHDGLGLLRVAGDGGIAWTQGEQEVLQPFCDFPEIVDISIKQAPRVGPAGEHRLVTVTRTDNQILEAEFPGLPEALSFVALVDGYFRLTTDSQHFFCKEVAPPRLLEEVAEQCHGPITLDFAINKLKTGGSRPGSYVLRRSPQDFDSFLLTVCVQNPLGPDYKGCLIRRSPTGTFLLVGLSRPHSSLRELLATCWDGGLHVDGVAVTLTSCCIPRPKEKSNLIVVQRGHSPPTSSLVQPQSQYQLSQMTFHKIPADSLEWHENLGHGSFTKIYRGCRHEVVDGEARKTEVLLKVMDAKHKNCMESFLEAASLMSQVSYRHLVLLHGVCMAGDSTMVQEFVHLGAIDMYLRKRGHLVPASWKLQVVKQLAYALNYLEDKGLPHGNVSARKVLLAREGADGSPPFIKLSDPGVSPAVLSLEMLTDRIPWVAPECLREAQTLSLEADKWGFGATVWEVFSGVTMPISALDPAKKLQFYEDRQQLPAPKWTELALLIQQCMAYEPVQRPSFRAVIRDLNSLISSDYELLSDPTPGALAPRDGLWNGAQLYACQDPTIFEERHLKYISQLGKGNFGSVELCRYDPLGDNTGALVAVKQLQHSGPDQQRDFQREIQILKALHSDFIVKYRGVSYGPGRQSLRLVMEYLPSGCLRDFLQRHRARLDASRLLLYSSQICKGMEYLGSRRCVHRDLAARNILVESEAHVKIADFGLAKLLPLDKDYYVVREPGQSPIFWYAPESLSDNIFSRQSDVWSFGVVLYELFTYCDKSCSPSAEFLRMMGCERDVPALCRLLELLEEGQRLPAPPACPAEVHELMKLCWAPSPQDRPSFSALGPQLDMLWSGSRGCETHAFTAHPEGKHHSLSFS

EGFR = EGFR (Homo sapiens, UniProt P00533); assay: Inhibition of a panel of kinases, in vitro HotSpot kinase assay: EGFR; details: D-compounds panel data; 1 μM ATP
Method: (§1) The degree of inhibition of a panel of kinases is determined using the in vitro HotSpot kinase assay (purified enzymes, ^33P-ATP, an appropriate substrate and 1 μM ATP).

ITK = target: T2, ITK (Homo sapiens, UniProt Q08881); assay: Inhibition of a panel of kinases, in vitro HotSpot kinase assay: ITK; details: D-compounds panel data; 1 μM ATP
T2 sequence (Q08881 1-620): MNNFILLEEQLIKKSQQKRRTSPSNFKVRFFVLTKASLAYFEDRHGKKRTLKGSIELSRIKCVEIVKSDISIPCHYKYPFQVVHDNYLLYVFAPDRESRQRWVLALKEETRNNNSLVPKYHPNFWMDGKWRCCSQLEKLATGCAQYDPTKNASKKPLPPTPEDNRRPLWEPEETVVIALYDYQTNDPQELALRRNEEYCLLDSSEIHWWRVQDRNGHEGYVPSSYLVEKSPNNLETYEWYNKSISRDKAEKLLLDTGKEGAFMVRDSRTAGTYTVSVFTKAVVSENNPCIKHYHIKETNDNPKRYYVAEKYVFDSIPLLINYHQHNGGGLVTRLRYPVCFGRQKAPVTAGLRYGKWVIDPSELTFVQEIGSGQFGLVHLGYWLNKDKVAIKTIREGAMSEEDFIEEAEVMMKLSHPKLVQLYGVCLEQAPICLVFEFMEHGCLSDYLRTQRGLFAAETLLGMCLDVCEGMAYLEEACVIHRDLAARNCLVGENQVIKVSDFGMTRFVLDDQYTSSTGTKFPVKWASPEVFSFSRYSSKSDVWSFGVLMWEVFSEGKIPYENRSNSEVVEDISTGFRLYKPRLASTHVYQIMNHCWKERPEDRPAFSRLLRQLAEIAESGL
Method: as §1

TEC = target: T3, TEC (Homo sapiens, UniProt P42680); assay: Inhibition of a panel of kinases, in vitro HotSpot kinase assay: TEC; details: D-compounds panel data; 1 μM ATP
T3 sequence (P42680 1-631): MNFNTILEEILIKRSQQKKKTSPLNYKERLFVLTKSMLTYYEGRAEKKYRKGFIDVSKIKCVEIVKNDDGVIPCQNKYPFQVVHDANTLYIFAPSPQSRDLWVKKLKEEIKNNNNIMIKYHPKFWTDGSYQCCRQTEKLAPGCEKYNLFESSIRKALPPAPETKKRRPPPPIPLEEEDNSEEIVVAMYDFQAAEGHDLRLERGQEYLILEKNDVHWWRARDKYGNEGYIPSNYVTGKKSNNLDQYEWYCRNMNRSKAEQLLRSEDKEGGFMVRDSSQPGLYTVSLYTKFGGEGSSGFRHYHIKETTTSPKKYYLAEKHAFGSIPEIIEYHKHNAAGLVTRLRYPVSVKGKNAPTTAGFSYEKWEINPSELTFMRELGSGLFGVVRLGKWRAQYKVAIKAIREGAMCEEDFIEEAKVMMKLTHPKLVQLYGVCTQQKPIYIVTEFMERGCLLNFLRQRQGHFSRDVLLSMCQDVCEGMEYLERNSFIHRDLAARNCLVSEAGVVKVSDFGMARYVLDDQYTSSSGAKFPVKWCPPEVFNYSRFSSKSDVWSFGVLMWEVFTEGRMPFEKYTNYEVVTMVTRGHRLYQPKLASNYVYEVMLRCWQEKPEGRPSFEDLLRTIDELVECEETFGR
Method: as §1

SRC = SRC (Homo sapiens, UniProt P12931); assay: Inhibition of a panel of kinases, in vitro HotSpot kinase assay: SRC; details: D-compounds panel data; 1 μM ATP
Method: as §1

EGFR, sequence (P00533 25-1210): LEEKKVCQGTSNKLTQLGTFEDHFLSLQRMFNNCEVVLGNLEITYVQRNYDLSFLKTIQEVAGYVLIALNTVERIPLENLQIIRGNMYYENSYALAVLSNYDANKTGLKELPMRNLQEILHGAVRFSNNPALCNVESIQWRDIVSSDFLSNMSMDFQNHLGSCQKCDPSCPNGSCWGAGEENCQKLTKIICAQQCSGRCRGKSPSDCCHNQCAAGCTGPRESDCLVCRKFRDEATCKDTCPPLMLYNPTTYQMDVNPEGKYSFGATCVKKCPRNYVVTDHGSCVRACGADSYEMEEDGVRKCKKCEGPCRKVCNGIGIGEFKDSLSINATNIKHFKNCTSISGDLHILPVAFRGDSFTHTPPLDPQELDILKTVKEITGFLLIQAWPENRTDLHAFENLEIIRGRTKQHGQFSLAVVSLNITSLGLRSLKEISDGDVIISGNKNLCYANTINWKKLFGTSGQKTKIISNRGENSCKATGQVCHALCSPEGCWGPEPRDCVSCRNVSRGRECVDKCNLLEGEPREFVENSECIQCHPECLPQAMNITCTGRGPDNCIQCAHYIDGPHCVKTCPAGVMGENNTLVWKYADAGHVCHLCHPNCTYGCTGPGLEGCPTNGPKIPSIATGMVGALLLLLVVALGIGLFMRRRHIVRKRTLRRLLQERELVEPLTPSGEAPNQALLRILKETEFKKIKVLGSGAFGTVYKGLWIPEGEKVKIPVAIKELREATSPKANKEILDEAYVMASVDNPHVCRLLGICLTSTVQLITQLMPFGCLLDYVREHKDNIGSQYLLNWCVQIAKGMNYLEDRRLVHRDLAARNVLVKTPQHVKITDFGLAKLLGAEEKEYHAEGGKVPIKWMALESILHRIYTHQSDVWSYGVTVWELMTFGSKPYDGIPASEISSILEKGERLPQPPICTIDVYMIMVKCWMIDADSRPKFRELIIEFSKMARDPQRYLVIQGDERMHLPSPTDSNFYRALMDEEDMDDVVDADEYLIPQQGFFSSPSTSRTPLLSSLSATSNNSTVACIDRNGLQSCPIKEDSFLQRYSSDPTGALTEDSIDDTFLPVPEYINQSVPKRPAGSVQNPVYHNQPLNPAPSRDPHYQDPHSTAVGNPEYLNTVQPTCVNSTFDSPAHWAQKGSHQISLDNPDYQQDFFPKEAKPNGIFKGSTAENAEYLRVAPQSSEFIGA
SRC, sequence (P12931 whole entry): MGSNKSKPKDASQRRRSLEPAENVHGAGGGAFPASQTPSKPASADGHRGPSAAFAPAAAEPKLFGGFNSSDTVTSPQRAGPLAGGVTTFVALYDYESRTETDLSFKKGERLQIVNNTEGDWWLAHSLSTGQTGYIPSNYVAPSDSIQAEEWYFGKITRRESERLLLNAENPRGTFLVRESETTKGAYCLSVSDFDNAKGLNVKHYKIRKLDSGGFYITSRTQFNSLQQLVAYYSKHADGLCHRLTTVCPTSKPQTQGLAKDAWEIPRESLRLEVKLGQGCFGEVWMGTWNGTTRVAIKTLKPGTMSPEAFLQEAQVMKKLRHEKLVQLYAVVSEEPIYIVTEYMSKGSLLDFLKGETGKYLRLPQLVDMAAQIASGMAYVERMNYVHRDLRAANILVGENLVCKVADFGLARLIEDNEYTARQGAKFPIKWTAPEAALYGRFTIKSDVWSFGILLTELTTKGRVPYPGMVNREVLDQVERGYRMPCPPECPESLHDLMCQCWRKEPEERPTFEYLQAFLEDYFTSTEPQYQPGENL

Structure (SMILES)	IC50 (JAK3) [nM]	IC50 (EGFR) [nM]	IC50 (ITK) [nM]	IC50 (TEC) [nM]	IC50 (SRC) [nM]
Cn1cc(Nc2nc(N3C4CCC(NC(=O)c5ccc(C6CC6)cc5)C3CC4)cnc2C(N)=O)cn1 (single isomer, unassigned) [Example D-199, 5-[2-(4-cyclopropylbenzamido)-8-azabicyclo[3.2.1]octan-8-yl]-3-[(1-methyl-1H-pyrazol-4-yl)amino]pyrazine-2-carboxamide]	1000 to 10000	> 10000	> 10000	1000 to 10000	1000 to 10000
Cn1cc(Nc2nc(N3C4CCC(NC(=O)c5ccc(C6CC6)cc5)C3CC4)cnc2C(N)=O)cn1 (single isomer, unassigned) [Example D-200, 5-[2-(4-cyclopropylbenzamido)-8-azabicyclo[32.1]octan-8-yl]-3-[(1-methyl-1H-pyrazol-4-yl)amino]pyrazine-2-carboxamide]	> 10000	1000 to 10000	> 10000	1000 to 10000	1000 to 10000
Cn1cc(Nc2nc(N3C4CCC(NC(=O)c5ccc(C6CC6)cc5)C3CC4)cnc2C(N)=O)cn1 (single isomer, unassigned) [Example D-201, 5-[2-(4-cyclopropylbenzamido)-8-azabicyclo[3.2.1]octan-8-yl]-3-[(1-methyl-1H-pyrazol-4-yl)amino]pyrazine-2-carboxamide]	1000 to 10000	1000 to 10000	1000 to 10000	≤ 10	10 to 100
Cn1cc(Nc2nc(N3C4CCC(NC(=O)c5ccc(C6CC6)cc5)C3CC4)cnc2C(N)=O)cn1 (single isomer, unassigned) [Example D-202, 5-[2-(4-cyclopropylbenzamido)-8-azabicyclo[3.2. I]octan-8-yl]-3-[(1-methyl-1H-pyrazol-4-yl)amino]pyrazine-2-carboxamide]	> 10000	> 10000	1000 to 10000	100 to 1000	100 to 1000
C[C@@H]1[C@H](NC(=O)c2ccc(C(C)(O)C(F)(F)F)cc2)CCCN1c1cnc(C(N)=O)c(Nc2cnn(C)c2)n1 (single isomer, unassigned) [Example D-213]	1000 to 10000	1000 to 10000	100 to 1000	≤ 10	10 to 100
C[C@@H]1[C@H](NC(=O)c2ccc(C(C)(O)C(F)(F)F)cc2)CCCN1c1cnc(C(N)=O)c(Nc2cnn(C)c2)n1 (single isomer, unassigned) [Example D-214]	1000 to 10000	100 to 1000	100 to 1000	≤ 10	10 to 100
Cn1cc(Nc2nc(N3CC(NC(=O)c4ccc(C5CC5)cc4)CC(F)(F)C3)cnc2C(N)=O)cn1 (stereo in doubt) [Example D-190, 5-[(5S)-5-(4-cyclopropylbenzamido)-3,3-difluoropiperidin-1-yl]-3-[(1-methyl-1H-pyrazol-4-yl)amino]pyrazine-2-carboxamide]	1000 to 10000	1000 to 10000	1000 to 10000	100 to 1000	100 to 1000
C[C@@H]1[C@H](NC(=O)c2ccc(C3CC3)cc2F)CCCN1c1cnc(C(N)=O)c(Nc2ccc(N3CCN(C)C[C@@H]3C)cc2)n1 [Example D-12, 5-[(2R,3R)-3-(4-cyclopropyl-2-fluorobenzamido)-2-methylpiperidin-1-yl]-3-({4-[(2S)-2,4-dimethylpiperazin-1-yl]phenyl}amino)pyrazine-2-carboxamide]	100 to 1000	100 to 1000	100 to 1000	10 to 100	100 to 1000
C[C@@H]1[C@H](NC(=O)c2ccc(C3CC3)cc2F)CCCN1c1cnc(C(N)=O)c(Nc2ccc(N3CCN(C)CC3)nc2)n1 [Example D-13, 5-[(2R,3R)-3-(4-cyclopropyl-2-fluorobenzamido)-2-methylpiperidin-1-yl]-3-{[6-(4-methylpiperazin-1-yl)pyridin-3-yl]amino}pyrazine-2-carboxamide]	1000 to 10000	1000 to 10000	1000 to 10000	100 to 1000	100 to 1000
C[C@@H]1[C@H](NC(=O)c2ccc(C(C)(C)C)cc2)CCCN1c1cnc(C(N)=O)c(Nc2ccc(N3CCN(C)CC3)cc2)n1 [Example D-14, 5-[(2R,3R)-3-(4-tert-butylbenzamido)-2-methylpiperidin-1-yl]-3-{[4-(4-methylpiperazin-1-yl)phenyl]amino}pyrazine-2-carboxamide]	1000 to 10000	1000 to 10000	100 to 1000	10 to 100	10 to 100
Cc1cc(Nc2nc(N3CCC[C@@H](NC(=O)N4Cc5ccccc5C4=O)C3)cnc2C(N)=O)sn1 [Example D-15, N-[(3R)-1-{5-carbamoyl-6-[(3-methyl-1,2-thiazol-5-yl)amino]pyrazin-2-yl}piperidin-3-yl]-1-oxo-2,3-dihydro-1H-isoindole-2-carboxamide]	1000 to 10000	100 to 1000	10 to 100	10 to 100	10 to 100
C[C@@H]1[C@H](NC(=O)c2ccc(C3CC3)cc2Cl)CCCN1c1cnc(C(N)=O)c(Nc2ccc(N3CCN(C)CC3)cc2)n1 [Example D-16, 5-[(2R,3R)-3-(2-chloro-4-cyclopropylbenzamido)-2-methylpiperidin-1-yl]-3-{[4-(4-methylpiperazin-1-yl)phenyl]amino}pyrazine-2-carboxamide]	1000 to 10000	100 to 1000	100 to 1000	10 to 100	100 to 1000
C[C@@H]1[C@H](NC(=O)c2ccc(C3CC3)c(Cl)c2)CCCN1c1cnc(C(N)=O)c(Nc2ccc(N3CCN(C)CC3)cc2)n1 [Example D-17, 5-[(2R,3R)-3-(3-chloro-4-cyclopropylbenzamido)-2-methylpiperidin-1-yl]-3-{[4-(4-methylpiperazin-1-yl)phenyl]amino}pyrazine-2-carboxamide]	1000 to 10000	1000 to 10000	100 to 1000	100 to 1000	100 to 1000
